According to PubChem BioAssay (NCI):
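How tested: cells in 96-well plates exposed to compound for 48 hours at five concentrations. TGI denotes the concentration required for complete inhibition of growth.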

How the values were obtained:
Test in all cases: NCI tumour cell line growth inhibition, 48 h
M14 melanoma = system: M14 melanoma
HOP-62 NSCLC = system: HOP-62 NSCLC
OVCAR-8 ovarian = system: OVCAR-8 ovarian
SN12C renal = system: SN12C renal
SF-268 CNS = system: SF-268 CNS
KM12 colon = system: KM12 colon
IGROV1 ovarian = system: IGROV1 ovarian
NCI-H522 lung = system: NCI-H522 lung
786-0 renal = system: 786-0 renal
HCT-116 colon = system: HCT-116 colon
CCRF-CEM leukemia = system: CCRF-CEM leukemia
HCC-2998 colon = system: HCC-2998 colon
T-47D breast = system: T-47D breast
CAKI-1 renal = system: CAKI-1 renal
SNB-19 CNS = system: SNB-19 CNS
UACC-257 melanoma = system: UACC-257 melanoma
MDA-MB-435 = system: MDA-MB-435
OVCAR-3 ovarian = system: OVCAR-3 ovarian
SR leukemia = system: SR leukemia
RXF 393 renal = system: RXF 393 renal
OVCAR-5 ovarian = system: OVCAR-5 ovarian
UACC-62 melanoma = system: UACC-62 melanoma
SK-MEL-5 melanoma = system: SK-MEL-5 melanoma
SK-MEL-2 melanoma = system: SK-MEL-2 melanoma
SW-620 colon = system: SW-620 colon
SK-OV-3 ovarian = system: SK-OV-3 ovarian
A498 renal = system: A498 renal
MCF7 breast = system: MCF7 breast
SF-539 CNS = system: SF-539 CNS
SK-MEL-28 melanoma = system: SK-MEL-28 melanoma
DU-145 prostate = system: DU-145 prostate
HL-60(TB) leukemia = system: HL-60(TB) leukemia
NCI/ADR-RES ovarian = system: NCI/ADR-RES ovarian
SF-295 CNS = system: SF-295 CNS
MOLT-4 leukemia = system: MOLT-4 leukemia
TK-10 renal = system: TK-10 renal
HT29 colon = system: HT29 colon
PC-3 prostate = system: PC-3 prostate
LOX IMVI melanoma = system: LOX IMVI melanoma
OVCAR-4 ovarian = system: OVCAR-4 ovarian
K-562 leukemia = system: K-562 leukemia
EKVX NSCLC = system: EKVX NSCLC
MALME-3M melanoma = system: MALME-3M melanoma
SNB-75 CNS = system: SNB-75 CNS
NCI-H23 lung = system: NCI-H23 lung
HS 578T breast = system: HS 578T breast
HOP-92 NSCLC = system: HOP-92 NSCLC
UO-31 renal = system: UO-31 renal
MDA-N = system: MDA-N
ACHN renal = system: ACHN renal
HCT-15 colon = system: HCT-15 colon
MDA-MB-231 breast = system: MDA-MB-231 breast
COLO 205 colon = system: COLO 205 colon
A549 NSCLC = system: A549 NSCLC
BT-549 breast = system: BT-549 breast
RPMI-8226 leukemia = system: RPMI-8226 leukemia
NCI-H460 lung = system: NCI-H460 lung
NCI-H226 lung = system: NCI-H226 lung
U251 CNS = system: U251 CNS

Compound: CC(C)(C)OC(=O)N1CC(CCl)c2ccc(O)cc21 (stereo not given)
- TGI (M14 melanoma): 3.21 µM
- TGI (HOP-62 NSCLC): 12.9 µM
- TGI (OVCAR-8 ovarian): 11.7 µM
- TGI (SN12C renal): 11.5 µM
- TGI (SF-268 CNS): 4.26 µM
- TGI (KM12 colon): 4.6 µM
- TGI (IGROV1 ovarian): 13.3 µM
- TGI (NCI-H522 lung): 2.01 µM
- TGI (786-0 renal): 12.3 µM
- TGI (HCT-116 colon): 12.1 µM
- TGI (CCRF-CEM leukemia): 9.61 µM
- TGI (HCC-2998 colon): 2.02 µM
- TGI (T-47D breast): 12.7 µM
- TGI (CAKI-1 renal): 11.6 µM
- TGI (SNB-19 CNS): 10.6 µM
- TGI (UACC-257 melanoma): 5.01 µM
- TGI (MDA-MB-435): 4.06 µM
- TGI (OVCAR-3 ovarian): 5.83 µM
- TGI (SR leukemia): > 100 µM
- TGI (RXF 393 renal): 2.85 µM
- TGI (OVCAR-5 ovarian): 10.2 µM
- TGI (UACC-62 melanoma): 4.56 µM
- TGI (SK-MEL-5 melanoma): 2.77 µM
- TGI (SK-MEL-2 melanoma): 3.2 µM
- TGI (SW-620 colon): 11 µM
- TGI (SK-OV-3 ovarian): 11.8 µM
- TGI (A498 renal): 4.82 µM
- TGI (MCF7 breast): 5.02 µM
- TGI (SF-539 CNS): 4.96 µM
- TGI (SK-MEL-28 melanoma): 4.17 µM
- TGI (DU-145 prostate): 5.73 µM
- TGI (HL-60(TB) leukemia): 5.29 µM
- TGI (NCI/ADR-RES ovarian): 3.68 µM
- TGI (SF-295 CNS): 18.7 µM
- TGI (MOLT-4 leukemia): 8.13 µM
- TGI (TK-10 renal): 7.47 µM
- TGI (HT29 colon): 11 µM
- TGI (PC-3 prostate): 5.51 µM
- TGI (LOX IMVI melanoma): 3.72 µM
- TGI (OVCAR-4 ovarian): 1.39 µM
- TGI (K-562 leukemia): 14.2 µM
- TGI (EKVX NSCLC): 6.73 µM
- TGI (MALME-3M melanoma): 3.01 µM
- TGI (SNB-75 CNS): 3.11 µM
- TGI (NCI-H23 lung): 2.32 µM
- TGI (HS 578T breast): 7.41 µM
- TGI (HOP-92 NSCLC): 6.87 µM
- TGI (UO-31 renal): 6.17 µM
- TGI (MDA-N): 3.67 µM
- TGI (ACHN renal): 3.38 µM
- TGI (HCT-15 colon): 10 µM
- TGI (MDA-MB-231 breast): 11.4 µM
- TGI (COLO 205 colon): 4.53 µM
- TGI (A549 NSCLC): 11.3 µM
- TGI (BT-549 breast): 4.61 µM
- TGI (RPMI-8226 leukemia): 7.96 µM
- TGI (NCI-H460 lung): 10.2 µM
- TGI (NCI-H226 lung): 4.53 µM
- TGI (U251 CNS): 12.1 µM

Compound: c1ccc2c(c1)nc1n2CSCC1
- TGI (M14 melanoma): > 100 µM
- TGI (HOP-62 NSCLC): > 100 µM
- TGI (OVCAR-8 ovarian): > 100 µM
- TGI (SN12C renal): > 100 µM
- TGI (SF-268 CNS): > 100 µM
- TGI (KM12 colon): > 100 µM
- TGI (IGROV1 ovarian): > 100 µM
- TGI (786-0 renal): > 100 µM
- TGI (HCT-116 colon): > 100 µM
- TGI (CCRF-CEM leukemia): > 100 µM
- TGI (HCC-2998 colon): > 100 µM
- TGI (T-47D breast): > 100 µM
- TGI (CAKI-1 renal): > 100 µM
- TGI (SNB-19 CNS): > 100 µM
- TGI (UACC-257 melanoma): > 100 µM
- TGI (MDA-MB-435): > 100 µM
- TGI (OVCAR-3 ovarian): > 100 µM
- TGI (SR leukemia): > 100 µM
- TGI (RXF 393 renal): > 100 µM
- TGI (OVCAR-5 ovarian): > 100 µM
- TGI (UACC-62 melanoma): > 100 µM
- TGI (SK-MEL-5 melanoma): > 100 µM
- TGI (SK-MEL-2 melanoma): > 100 µM
- TGI (SW-620 colon): > 100 µM
- TGI (SK-OV-3 ovarian): > 100 µM
- TGI (A498 renal): > 100 µM
- TGI (MCF7 breast): > 100 µM
- TGI (SF-539 CNS): > 100 µM
- TGI (SK-MEL-28 melanoma): > 100 µM
- TGI (DU-145 prostate): > 100 µM
- TGI (HL-60(TB) leukemia): > 100 µM
- TGI (NCI/ADR-RES ovarian): > 100 µM
- TGI (SF-295 CNS): > 100 µM
- TGI (MOLT-4 leukemia): > 100 µM
- TGI (TK-10 renal): > 100 µM
- TGI (HT29 colon): > 100 µM
- TGI (PC-3 prostate): > 100 µM
- TGI (LOX IMVI melanoma): > 100 µM
- TGI (OVCAR-4 ovarian): > 100 µM
- TGI (K-562 leukemia): > 100 µM
- TGI (EKVX NSCLC): > 100 µM
- TGI (SNB-75 CNS): > 100 µM
- TGI (NCI-H23 lung): > 100 µM
- TGI (HS 578T breast): > 100 µM
- TGI (HOP-92 NSCLC): > 100 µM
- TGI (UO-31 renal): > 100 µM
- TGI (MDA-N): > 100 µM
- TGI (ACHN renal): > 100 µM
- TGI (HCT-15 colon): > 100 µM
- TGI (MDA-MB-231 breast): > 100 µM
- TGI (COLO 205 colon): > 100 µM
- TGI (A549 NSCLC): > 100 µM
- TGI (BT-549 breast): > 100 µM
- TGI (RPMI-8226 leukemia): > 100 µM
- TGI (NCI-H460 lung): > 100 µM
- TGI (NCI-H226 lung): > 100 µM
- TGI (U251 CNS): > 100 µM

Compound: C=C1C(=O)O[C@H]2C1C[C@@H](O)/C(C)=C/CC[C@@]1(C)O[C@H]21 (stereo not given in full)
- TGI (M14 melanoma): 37.4 µM
- TGI (HOP-62 NSCLC): > 95.6 µM
- TGI (OVCAR-8 ovarian): 45.1 µM
- TGI (SN12C renal): > 55.9 µM
- TGI (SF-268 CNS): > 100 µM
- TGI (KM12 colon): > 100 µM
- TGI (IGROV1 ovarian): > 43.8 µM
- TGI (NCI-H522 lung): 15.1 µM
- TGI (786-0 renal): > 48.2 µM
- TGI (HCT-116 colon): 23.6 µM
- TGI (CCRF-CEM leukemia): 12.6 µM
- TGI (HCC-2998 colon): > 52.6 µM
- TGI (T-47D breast): 50 µM
- TGI (CAKI-1 renal): 12.5 µM
- TGI (SNB-19 CNS): > 100 µM
- TGI (UACC-257 melanoma): 46.8 µM
- TGI (MDA-MB-435): 23.7 µM
- TGI (OVCAR-3 ovarian): 21.5 µM
- TGI (SR leukemia): 44.9 µM
- TGI (RXF 393 renal): 26.5 µM
- TGI (OVCAR-5 ovarian): > 53.8 µM
- TGI (UACC-62 melanoma): > 54.2 µM
- TGI (SK-MEL-5 melanoma): 49.1 µM
- TGI (SK-MEL-2 melanoma): > 54.8 µM
- TGI (SW-620 colon): 17.9 µM
- TGI (SK-OV-3 ovarian): > 82.7 µM
- TGI (A498 renal): 63.1 µM
- TGI (MCF7 breast): 35 µM
- TGI (SF-539 CNS): 54.3 µM
- TGI (SK-MEL-28 melanoma): 33.7 µM
- TGI (DU-145 prostate): > 56 µM
- TGI (HL-60(TB) leukemia): 9.27 µM
- TGI (NCI/ADR-RES ovarian): > 87.9 µM
- TGI (SF-295 CNS): > 100 µM
- TGI (MOLT-4 leukemia): 22.3 µM
- TGI (TK-10 renal): 33.4 µM
- TGI (HT29 colon): > 57 µM
- TGI (PC-3 prostate): > 49.3 µM
- TGI (LOX IMVI melanoma): 26.6 µM
- TGI (OVCAR-4 ovarian): > 43.4 µM
- TGI (K-562 leukemia): 28.8 µM
- TGI (EKVX NSCLC): 38.9 µM
- TGI (MALME-3M melanoma): 16.9 µM
- TGI (SNB-75 CNS): 34.7 µM
- TGI (NCI-H23 lung): 31.9 µM
- TGI (HS 578T breast): > 89.5 µM
- TGI (HOP-92 NSCLC): 22.9 µM
- TGI (UO-31 renal): > 49.6 µM
- TGI (MDA-N): > 50.9 µM
- TGI (ACHN renal): 37.7 µM
- TGI (HCT-15 colon): 58.8 µM
- TGI (MDA-MB-231 breast): 44.8 µM
- TGI (COLO 205 colon): > 36.9 µM
- TGI (A549 NSCLC): > 91 µM
- TGI (BT-549 breast): > 44.5 µM
- TGI (RPMI-8226 leukemia): 25.8 µM
- TGI (NCI-H460 lung): > 68.5 µM
- TGI (NCI-H226 lung): > 96.4 µM
- TGI (U251 CNS): > 53.2 µM
